Assay results as given in publication PMC6173696, “Structural properties of a haemophore facilitate targeted elimination of the pathogen Porphyromonas gingivalis” (Nature Communications, 2018).

Columns and labels:
[1] = target: T1, HusA (Porphyromonas gingivalis, UniProt Q7MSY3); assay: Tryptophan fluorescence quenching assay, HusA wild-type; type: binding; conditions: HusA wild-type 1 µM, fit to 1:1 binding model; read-out: Kd
T1 sequence (Q7MSY3 24-218): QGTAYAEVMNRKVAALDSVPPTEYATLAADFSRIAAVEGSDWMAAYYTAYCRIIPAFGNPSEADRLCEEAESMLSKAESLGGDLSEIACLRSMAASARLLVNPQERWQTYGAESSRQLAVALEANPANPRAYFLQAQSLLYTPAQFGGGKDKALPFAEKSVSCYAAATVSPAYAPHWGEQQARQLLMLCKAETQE
Protocol: The quenching of intrinsic tryptophan fluorescence of HusA upon porphyrin additions was measured using a Carey Eclipse Fluorescence Spectrophotometer (Agilent) set to a photo multiplier effect (PME) of 850. A 5-mm path length quartz cuvette was used and all spectra were acquired at room temperature. Excitation was set to 295 nm and emission was measured from 300 nm to 500 nm using excitation/emission slit widths of 5 nm. Binding assays were performed at a protein concentration of 1 μM HusA in standard buffer at a working volume of 0.5 mL. […] The fluorescence quenching of HusA by PPIX was investigated in a similar manner with the following difference: the fluorescence intensities of ten 1 μM HusA samples were measured each with increasing amounts of PPIX after a 2-h incubation period to allow equilibrium to be reached. See Supplementary Methods for correction for inner filter effect and curve fitting. […]
Correction of inner filter effect and curve fitting in tryptophan fluorescence quenching assays The concentration of NATA was chosen such that the raw fluorescence intensity was similar to the […] concentrations of HusA and mutants used. The same molarity titrants of porphyrin were titrated into NATA as were added into HusA in the control reactions. Fluorescence intensity was scaled with respect to the starting florescence and corrected for the inner filter effect. Fluorescence at 335 nm was used to fit binding curves.
The correction method is based on Fonin AV., et al.26, noting that a Cary Eclipse spectrofluorimeter […]
performed to measure the contribution to the decrease in fluorescence due to the inner filter effect and this effect was scaled to the starting fluorescence values as fractional changes. The measured fluorescence at each titration point for each of the porphyrin titrations into protein was then adjusted for this contribution. Fluorescence at 335 nm was used to fit binding curves. Association constant, Ka, was fitted using the following equation in Origin, assuming a single binding site. A dissociation constant, Kd, was calculated by taking the inverse of the Ka.
Xobs = XA×f A+XAB×f AB (1) where XA is the corrected fluorescence, fA=1-fAB, fAB=x/(Bt), x=(-b-sqrt(b2-4×c))/2, b=-(1/Ka+At+Bt), c=Bt×At, Bt=total concentration of protein, At=total concentration of ligand.
To aid comparison of the different titrations, the corrected fluorescence was scaled to the starting fluorescence in the absence of porphyrins (i.e. all fluorescence curves have a starting value of one

[2] = system: P. gingivalis wild-type W83; assay: Checkerboard / broth micro-dilution assay (MIC, MBC), wild-type W83; type: cell-based, Porphyromonas gingivalis; conditions: Porphyromonas gingivalis; planktonic W83, 24 h, anaerobic; read-out: minimal inhibitory concentration
Excerpt: Fig. 5 A prototype DPIX-conjugated antibiotic binds HusA and inhibits P. gingivalis. a The chemical structure of the deuteroporphyrin-lysine-metronidazole adduct, P8. b NMR signal intensity changes (black) and ^1H^N CSPs (red/green) for HusA upon addition of P8 (measured from ^15N-HSQC spectra shown in Supplementary Figure 21). c In silico docking of P8 to the energy minimized structure of HusA (conformer set 1), with residues experiencing NMR signal loss (orange) or CSPs (red/green) mapped to the structure (colouring as described in Fig. 2d). d Scaled and corrected fluorescence at 335 nm during titration of 1 μM of HusA with increasing concentrations of P8, haemin or DPIX. e Comparison of P8 inhibitory effect towards P. gingivalis wild-type W83 and husA mutants using checkerboard analysis. Serial dilutions of antibiotics (horizontal axis) were applied to a 96-well plate with different P. gingivalis strains (vertical axis). Serial dilutions of DPIX were also supplemented into wild-type W83 group to evaluate the competitive effect against P8. Absorption at OD600 of each well was recorded after 24 h of incubation. The OD600 of each strain grown in the absence of antibiotics was defined as 100% growth, which was applied to normalise the reading collected from other wells. The normalised percentage of each well was plotted in the checkerboard. Metronidazole alone and in combination with PPIX or DPIX was applied as control. f Intracellular killing assay of P8 antibiotics. Gingival H413 epithelial cells were infected by P. gingivalis W83 and then treated with P8 at various concentrations. Recovered bacteria were determined by CFU count. Metronidazole and DMSO were used as control. Three independent experiments with triplicate assays were conducted. […]

[3] = system: P. gingivalis wild-type W83; assay: Checkerboard analysis of metronidazole with PPIX or DPIX, iron-replete and -limited; type: cell-based, Porphyromonas gingivalis; conditions: iron replete or iron-limited conditions
Protocol: Supplementary Figure 24. Comparison of metronidazole inhibitory effect towards P. gingivalis wild-type W83 in the presence of PPIX or DPIX under iron-replete and -limited conditions by checkerboard analysis. Serial dilutions of antibiotics along the horizontal axis were applied to a 96-well plate with P. gingivalis W83. Two pre-determined concentrations of PPIX or DPIX were supplemented to evaluate the synergistic effect between metronidazole and porphyrins. Dipyridyl (at 100 µM) was also applied to explore the potential effect under iron-replete and iron-depleted conditions. Absorption at OD600 of each well was recorded after 24 h of incubation. The OD600 of each strain grown in the absence of antibiotics was defined as 100% growth which was applied to normalise the reading collected from other wells. The normalised percentage of each well was plotted […]
(1 picture or pasted object on this page, not shown here)

[4] = target: T1, HusA; assay: UV-visible absorption spectral analysis of ligand interaction with HusA; type: binding
Protocol: All absorbance spectra were recorded at room temperature using 10-mm quartz cuvettes on a Shimadzu UV-1601 or Jasco V-630 spectrophotometer. Mixtures of HusA/mutant with porphyrins were prepared by dissolving porphyrin stocks in standard buffer to a final concentration of 5–20 μM with a 1–1.5 molar ratio of protein to porphyrin, as specified in the relevant figure legends. PPIX:HusA mixtures were prepared by incremental addition of 2–4 μM HusA with a 10–15 min wait after each addition of HusA.

[5] = system: P. gingivalis W83; assay: Growth of starved W83 with titration of dipyridyl; type: cell-based, Porphyromonas gingivalis
Excerpt: This manuscript further describes HusA protein. Although very sophisticated methods were used and interesting results were gained, this study requires more work to be convincing. The conclusions drawn (mainly regarding the possibility that porphyrin-metronidazole conjugate could be used to treat P. gingivalis infection) are very strong but not supported enough by the data presented.
- How is this possible that P. gingivalis grows in the culture medium lacking iron (dipyridyl added) and supplemented with porphyrins without metal inside the porphyrin ring (Fig 1, panel A)? What serves as an iron source allowing P. gingivalis to grow? Were the bacteria starved before these experiments? Please explain this more carefully.
Response: We agree with the reviewer that P. gingivalis requires both iron and porphyrin to survive. Iron is naturally present in the complex medium, enriched tryptic soy broth (eTSB), used in this study. The iron concentration of TSB medium has been previously determined at 0.74 µg/mL by atomic absorption spectrophotometry (de Oliverira Moreira L., et al., 2003 AEM) which requires approximately 500 µM dipyridyl to chelate all available iron in the medium (Scharfman AH 1996 I&I). The dipyridyl used in this study is 100 µM and the remaining iron provided by the TSB medium is sufficient to support P. gingivalis growth. […]

Row | SMILES | Kd [1] [µM] | interaction with HusA by UV-visible absorption [4] | other results
1 | CC1=Cc2cc3[n-]c(cc4[n-]c(cc5nc(cc1n2)C=C5C)c(C)c4CCC(=O)[O-])c(CCC(=O)[O-])c3C.[Fe+2].[H+].[H+] [Fe(III)DPIX, iron(III) deuteroporphyrin IX] | 0.22 ± 0.05 | – | –
2 | Cc1ncc([N+](=O)[O-])n1CCO [Metronidazole, metronidazole] | – | – | MIC [2]: 5 to 10 µM
3 | C=CC1=C(C)c2cc3[nH]c(cc4nc(cc5[nH]c(cc1n2)c(C)c5CCC(=O)O)C(CCC(=O)O)=C4C)c(C)c3C=C [PPIX, protoporphyrin-IX] | 1.9 ± 0.6 | – | sensitisation of P. gingivalis cells towards metronidazole [3]: Neither PPIX nor DPIX sensitised
4 | C=CC1=C(C)/C(=C/c2[nH]c(Cc3[nH]c(/C=C4\NC(=O)C(C)=C4C=C)c(C)c3CCC(=O)O)c(CCC(=O)O)c2C)NC1=O [bilirubin] | – | no interaction | –
5 | C=CC1=C(C)/C(=C/C2=NC(=C\c3[nH]c(/C=C4\NC(=O)C(C)=C4C=C)c(C)c3CCC(=O)O)/C(CCC(=O)O)=C2C)NC1=O [biliverdin] | – | no interaction | –
6 | c1ccc(-c2ccccn2)nc1 [dipyridyl, 2,2’-dipyridyl] | – | – | dipyridyl concentration at which growth recovery after starvation was observed [5]: up to 200 µM; dipyridyl concentration at which P. gingivalis failed to recover ([5]; W83 after starvation): ≥ 500 µM
